Experimental findings from EP3436024B1, “3-BETA-METHOXY-PREG FOR USE IN THE TREATMENT OF TREATMENT RESISTANT DEPRESSION” (Mapreg, priority 2016, dated 2017) are described below.

The target in one experiment is Serotoninergic 5-HT6 (Homo sapiens, UniProt P50406). The experiment is described as follows: CNS receptor binding assay, 5-HT6. To be noted: MAP4343 10 µM; [^3H] LSD; Human recombinant (CHO cells); read-out: % Inhibition of control specific binding. The procedure: (§1) MAP4343 has been screened for in vitro affinity to 80 different CNS neurotransmitters receptors using various validated binding assays.
(§2) Table 4. In vitro affinity of MAP4343 (10 µM) for CNS neurotransmitter receptors associated with side effects and/or abuse liability. Data are the average of two individual assays for each receptor and are expressed as % inhibition of the control specific binding of the reference compound. Results showing an inhibition higher than 50% are considered to represent significant effects of the test compound.

The next experiment addresses Serotoninergic 5-HT2A (Homo sapiens, UniProt P28223). In words: CNS receptor binding assay, 5-HT2A. Particulars: MAP4343 10 µM; [^3H] ketanserin; Human recombinant (HEK-293 cells); read-out: % Inhibition of control specific binding. As to the method:
as §1, §2

The target of a further experiment is Oppioid K (Rattus norvegicus, UniProt P34975). In words: CNS receptor binding assay, opioid K. To be noted: MAP4343 10 µM; [^3H] U 69593; rat recombinant (CHO cells); read-out: % Inhibition of control specific binding. The procedure:
as §1, §2

In experiment [1] the target is Serotoninergic Transporter (Homo sapiens, UniProt P31645). The experiment is described as follows: CNS receptor binding assay, serotoninergic transporter. Particulars: MAP4343 10 µM; [^3H] imipramine; Human recombinant (CHO cells); read-out: % Inhibition of control specific binding. As to the method:
as §1, §2

For experiment [2], the target named is T1, Muscarinic (Cholinergic) M3 (Homo sapiens, UniProt P20309).
T1 construct: expressed in transfected cells; host or cells: CHO cells
The experiment is described as follows: CNS receptor binding assay, M3. To be noted: MAP4343 10 µM; [^3H] 4-DAMP; Human recombinant (CHO cells); read-out: % Inhibition of control specific binding. The procedure: as §1, §2

The next experiment deals with Dopaminergic D4.4 (Homo sapiens, UniProt P21917). In words: CNS receptor binding assay, D4.4. Particulars: MAP4343 10 µM; [^3H] spiperone; Human recombinant (CHO cells); read-out: % Inhibition of control specific binding. As to the method: as §1, §2
The target of experiment [3] is T2, Mineralocorticoid Receptor (MR) (Rattus norvegicus, UniProt P22199).
T2 construct: Wistar Rat kidney; from tissue; host or cells: Wistar rat kidney
In words: Radioligand binding assay, steroid hormone receptor MR. Particulars: MAP4343 10 µM; 4.5 nM [^3H] D-Aldosterone; Wistar Rat kidney. The procedure: Binding affinity of 3β-methoxy-PREG (MAP4343) for receptors of steroid hormones was evaluated using radioligand binding assays.
Table 3. Affinity of MAP4343 (10 µM) for steroid hormones receptors measured by radioligand binding assays. […] None of the results met significance criteria at concentrations used.

The target in a further experiment is Histaminergic H1 (Homo sapiens, UniProt P35367). The experiment is described as follows: CNS receptor binding assay, H1. Particulars: MAP4343 10 µM; [^3H] pyrilamine; Human recombinant (HEK-293 cells); read-out: % Inhibition of control specific binding. The procedure:
as §1, §2

A further experiment addresses Dopaminergic D1 (Homo sapiens, UniProt P21728). The experiment is described as follows: CNS receptor binding assay, D1. Particulars: MAP4343 10 µM; [^3H] SCH 23390; Human recombinant (CHO cells); read-out: % Inhibition of control specific binding. As to the method:
as §1, §2

Another experiment deals with Dopaminergic D3 (Homo sapiens, UniProt P35462). In words: CNS receptor binding assay, D3. Particulars: MAP4343 10 µM; [^3H] spiperone; Human recombinant (CHO cells); read-out: % Inhibition of control specific binding. As to the method:
as §1, §2

Another experiment has as its target Serotoninergic 5-HT1B (Rattus norvegicus, UniProt P28564). The experiment is described as follows: CNS receptor binding assay, 5-HT1B. Particulars: MAP4343 10 µM; [^125I] CYP + (-) propranolol; rat cerebral cortex; read-out: % Inhibition of control specific binding. As to the method:
as §1, §2

The next experiment addresses Serotoninergic 5-HT3 (Homo sapiens, UniProt P46098). The experiment is described as follows: CNS receptor binding assay, 5-HT3. Particulars: MAP4343 10 µM; [^3H] BRL 43694; Human recombinant (CHO cells); read-out: % Inhibition of control specific binding. As to the method: as §1, §2
In experiment [4] the target is T3, Muscarinic (Cholinergic) M2 (Homo sapiens, UniProt P08172).
T3 construct: expressed in transfected cells; host or cells: CHO cells
The experiment is described as follows: CNS receptor binding assay, M2. Particulars: MAP4343 10 µM; [^3H] AF-DX 384; Human recombinant (CHO cells); read-out: % Inhibition of control specific binding. As to the method:
as §1, §2

The test system of experiment [5] is Wistar Kyoto (WKY) rats. The experiment is described as follows: Anxious-like behavior: activity in the central square of the open-field arena, WKY rats. In kind it is in vivo, rat. To be noted: acute, MAP4343 10 mg/kg s.c., fluoxetine 10 mg/kg i.p., ketamine 30 mg/kg i.p. As to the method:
(§3) After a 6-day period of acclimatization, all experimental groups received daily successive subcutaneous (250 µl per rat) and intraperitoneal (1 ml/kg) injections. WI rats received injection of vehicle (sesame oil + saline) while WKY rats were randomly assigned to […], as follow: KWY rats receiving only vehicle (sesame oil + saline) and WKY rats treated with MAP4343 (10 mg/kg, s.c.; rats received in parallel i.p. injections of saline), fluoxetine (10 mg/kg i.p., rats received in parallel s.c. injections of sesame oil) or ketamine (30 mg/kg, i.p.; rats received in parallel s.c. injections of sesame oil) (see Figure 3).
(§4) After, a 6-day period of acclimatization, the acute phase of treatment started for 4 days during behavioral tests were performed (Figure 3). All animals were injected 1h30 before the starting of behavioral test.
(§5) The animals were individually placed in the open field arena (OFA) (70 x 100 x 70 cm), with a central square (35 x 50 cm), located in a 50 lux illuminated room and videotaped during 3 min using a computerized system (VideoTrack V2.5, ViewPoint, Lyon, France).
(§6) OFA allows firstly the evaluation of total locomotor activity (LMA) thereby measuring the total distance travelled in the arena (in cm). Secondly, measurements of the activity in the center of the arena like (i) the number of entries in the center of arena and (ii) the total time spent in the center of arena (in sec) provide cues of anxiety-like behavior (Prut and Belzung, 2003). All these behavioral parameters were instantaneously measured automatically with the VideoTrack V2.5 software from the videos.

In experiment [6] the test system is Wistar Kyoto (WKY) rats. In words: Locomotor activity in the open-field arena, WKY rats. In kind it is in vivo, rat. To be noted: acute, MAP4343 10 mg/kg s.c., fluoxetine 10 mg/kg i.p., ketamine 30 mg/kg i.p., 3 min, Fig. 5A. As to the method: as §3, §4, §5, §6
Another experiment has as its target Dopaminergic D5 (Homo sapiens, UniProt P21918). In words: CNS receptor binding assay, D5. To be noted: MAP4343 10 µM; [^3H] SCH 23390; Human recombinant (GH4 cells); read-out: % Inhibition of control specific binding. As to the method:
as §1, §2

A further experiment concerns the target Cannabinoid CB1 (Homo sapiens, UniProt P21554). In words: CNS receptor binding assay, CB1. To be noted: MAP4343 10 µM; [^3H] CP 55940; Human recombinant (CHO cells); read-out: % Inhibition of control specific binding. The procedure: as §1, §2

T2 sequence (P22199 whole entry): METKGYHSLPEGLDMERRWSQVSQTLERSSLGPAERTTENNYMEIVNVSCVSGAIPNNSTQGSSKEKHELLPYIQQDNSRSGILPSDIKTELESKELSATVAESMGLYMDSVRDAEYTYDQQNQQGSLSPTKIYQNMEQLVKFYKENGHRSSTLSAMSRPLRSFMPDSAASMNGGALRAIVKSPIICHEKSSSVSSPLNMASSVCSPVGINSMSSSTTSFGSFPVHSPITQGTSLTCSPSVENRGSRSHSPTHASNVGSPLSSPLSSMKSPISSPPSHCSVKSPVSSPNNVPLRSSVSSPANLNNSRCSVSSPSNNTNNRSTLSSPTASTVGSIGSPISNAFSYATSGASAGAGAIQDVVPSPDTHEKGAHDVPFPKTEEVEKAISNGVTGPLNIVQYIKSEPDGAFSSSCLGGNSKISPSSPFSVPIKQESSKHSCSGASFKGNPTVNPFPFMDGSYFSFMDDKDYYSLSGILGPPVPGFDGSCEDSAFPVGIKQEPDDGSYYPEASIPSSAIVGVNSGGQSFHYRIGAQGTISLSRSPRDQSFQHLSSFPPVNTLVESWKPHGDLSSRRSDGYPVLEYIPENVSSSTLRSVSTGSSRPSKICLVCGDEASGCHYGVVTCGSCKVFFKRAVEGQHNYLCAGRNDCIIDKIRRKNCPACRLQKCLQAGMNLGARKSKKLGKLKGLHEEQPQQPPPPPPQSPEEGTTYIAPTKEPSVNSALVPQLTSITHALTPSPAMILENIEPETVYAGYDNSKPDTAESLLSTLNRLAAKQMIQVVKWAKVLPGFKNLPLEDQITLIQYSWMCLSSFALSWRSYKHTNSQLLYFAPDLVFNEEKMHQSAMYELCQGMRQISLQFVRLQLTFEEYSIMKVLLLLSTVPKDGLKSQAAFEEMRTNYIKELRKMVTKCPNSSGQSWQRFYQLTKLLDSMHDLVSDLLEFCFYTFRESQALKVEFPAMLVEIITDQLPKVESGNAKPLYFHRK
Sequence of Serotoninergic 5-HT1B (P28564 whole entry): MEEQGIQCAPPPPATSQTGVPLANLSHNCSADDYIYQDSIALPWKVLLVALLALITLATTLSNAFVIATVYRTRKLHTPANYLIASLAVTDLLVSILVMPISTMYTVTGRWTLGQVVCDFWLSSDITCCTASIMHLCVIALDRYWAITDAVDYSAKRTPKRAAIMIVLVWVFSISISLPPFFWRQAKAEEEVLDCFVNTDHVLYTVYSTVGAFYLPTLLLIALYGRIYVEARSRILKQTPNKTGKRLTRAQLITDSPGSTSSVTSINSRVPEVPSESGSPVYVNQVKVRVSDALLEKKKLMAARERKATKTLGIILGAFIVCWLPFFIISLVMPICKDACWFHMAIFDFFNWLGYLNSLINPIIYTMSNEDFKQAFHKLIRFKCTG
Sequence of Serotoninergic 5-HT3 (P46098 24-478): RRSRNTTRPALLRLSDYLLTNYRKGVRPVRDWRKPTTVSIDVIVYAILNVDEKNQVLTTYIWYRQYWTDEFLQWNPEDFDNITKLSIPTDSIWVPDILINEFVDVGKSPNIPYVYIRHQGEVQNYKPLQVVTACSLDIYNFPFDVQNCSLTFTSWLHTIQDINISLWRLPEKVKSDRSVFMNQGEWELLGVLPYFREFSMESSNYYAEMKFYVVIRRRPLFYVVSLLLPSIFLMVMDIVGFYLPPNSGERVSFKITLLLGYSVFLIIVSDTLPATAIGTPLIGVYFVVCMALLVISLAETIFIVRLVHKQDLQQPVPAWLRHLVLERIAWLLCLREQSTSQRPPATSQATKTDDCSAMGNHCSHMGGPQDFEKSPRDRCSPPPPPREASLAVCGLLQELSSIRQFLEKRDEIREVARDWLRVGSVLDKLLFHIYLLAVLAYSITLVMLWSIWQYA
Sequence of Serotoninergic Transporter (P31645 whole entry): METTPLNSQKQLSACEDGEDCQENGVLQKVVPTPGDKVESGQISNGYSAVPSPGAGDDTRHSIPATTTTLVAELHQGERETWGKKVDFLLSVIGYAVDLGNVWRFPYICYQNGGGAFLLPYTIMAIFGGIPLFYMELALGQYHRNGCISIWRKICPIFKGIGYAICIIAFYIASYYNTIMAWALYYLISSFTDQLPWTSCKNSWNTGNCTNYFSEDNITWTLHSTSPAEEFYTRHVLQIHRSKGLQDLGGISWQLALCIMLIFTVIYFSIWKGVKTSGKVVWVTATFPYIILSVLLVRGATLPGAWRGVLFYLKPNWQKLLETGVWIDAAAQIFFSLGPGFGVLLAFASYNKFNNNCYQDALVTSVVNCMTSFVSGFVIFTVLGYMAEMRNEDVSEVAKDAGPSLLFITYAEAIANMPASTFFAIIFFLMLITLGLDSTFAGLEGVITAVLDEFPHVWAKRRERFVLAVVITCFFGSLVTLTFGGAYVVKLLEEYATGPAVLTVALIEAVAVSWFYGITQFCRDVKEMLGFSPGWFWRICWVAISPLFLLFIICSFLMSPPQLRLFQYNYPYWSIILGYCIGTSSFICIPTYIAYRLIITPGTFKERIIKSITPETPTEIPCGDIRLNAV
T1 sequence (P20309 whole entry): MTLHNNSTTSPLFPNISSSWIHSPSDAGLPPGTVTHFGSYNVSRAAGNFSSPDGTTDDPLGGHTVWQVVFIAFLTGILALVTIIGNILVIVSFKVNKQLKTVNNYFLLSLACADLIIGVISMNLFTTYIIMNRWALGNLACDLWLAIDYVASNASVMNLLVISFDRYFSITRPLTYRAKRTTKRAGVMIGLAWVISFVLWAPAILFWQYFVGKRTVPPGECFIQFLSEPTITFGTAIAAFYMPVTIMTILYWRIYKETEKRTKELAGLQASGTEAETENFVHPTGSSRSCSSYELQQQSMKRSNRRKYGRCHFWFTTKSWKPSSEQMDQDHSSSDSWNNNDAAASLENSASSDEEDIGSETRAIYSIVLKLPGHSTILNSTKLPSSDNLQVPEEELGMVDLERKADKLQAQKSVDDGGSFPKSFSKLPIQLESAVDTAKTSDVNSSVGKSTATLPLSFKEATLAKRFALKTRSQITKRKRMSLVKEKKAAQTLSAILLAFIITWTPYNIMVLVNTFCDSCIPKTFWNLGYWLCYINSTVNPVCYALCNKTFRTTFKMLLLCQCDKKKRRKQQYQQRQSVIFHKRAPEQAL
Sequence of Cannabinoid CB1 (P21554 whole entry): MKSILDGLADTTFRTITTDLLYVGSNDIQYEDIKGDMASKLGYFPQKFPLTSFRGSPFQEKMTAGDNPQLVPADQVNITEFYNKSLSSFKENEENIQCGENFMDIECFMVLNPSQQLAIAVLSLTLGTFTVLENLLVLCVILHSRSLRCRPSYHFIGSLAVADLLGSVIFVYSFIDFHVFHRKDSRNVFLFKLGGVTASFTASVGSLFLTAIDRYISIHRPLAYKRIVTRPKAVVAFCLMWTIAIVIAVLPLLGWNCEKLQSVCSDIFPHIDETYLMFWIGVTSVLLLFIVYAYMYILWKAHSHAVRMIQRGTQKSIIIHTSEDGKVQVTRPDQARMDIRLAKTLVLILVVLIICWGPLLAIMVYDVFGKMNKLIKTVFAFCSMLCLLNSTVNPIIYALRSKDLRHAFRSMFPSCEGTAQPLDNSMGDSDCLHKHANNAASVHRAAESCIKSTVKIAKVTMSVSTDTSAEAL
Sequence of Histaminergic H1 (P35367 whole entry): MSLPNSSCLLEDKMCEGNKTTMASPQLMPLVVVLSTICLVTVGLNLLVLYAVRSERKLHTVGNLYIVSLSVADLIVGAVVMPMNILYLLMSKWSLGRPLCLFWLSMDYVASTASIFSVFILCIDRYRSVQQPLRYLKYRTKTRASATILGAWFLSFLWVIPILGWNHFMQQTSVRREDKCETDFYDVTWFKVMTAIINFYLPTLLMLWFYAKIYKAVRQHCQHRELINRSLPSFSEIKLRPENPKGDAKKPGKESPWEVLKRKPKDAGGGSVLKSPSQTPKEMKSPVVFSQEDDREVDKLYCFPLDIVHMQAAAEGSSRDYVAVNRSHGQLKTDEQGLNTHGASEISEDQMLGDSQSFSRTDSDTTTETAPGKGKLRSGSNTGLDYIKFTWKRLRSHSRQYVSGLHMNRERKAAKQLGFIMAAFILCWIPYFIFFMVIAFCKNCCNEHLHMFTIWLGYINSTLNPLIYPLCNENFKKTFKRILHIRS
Sequence of Dopaminergic D5 (P21918 whole entry): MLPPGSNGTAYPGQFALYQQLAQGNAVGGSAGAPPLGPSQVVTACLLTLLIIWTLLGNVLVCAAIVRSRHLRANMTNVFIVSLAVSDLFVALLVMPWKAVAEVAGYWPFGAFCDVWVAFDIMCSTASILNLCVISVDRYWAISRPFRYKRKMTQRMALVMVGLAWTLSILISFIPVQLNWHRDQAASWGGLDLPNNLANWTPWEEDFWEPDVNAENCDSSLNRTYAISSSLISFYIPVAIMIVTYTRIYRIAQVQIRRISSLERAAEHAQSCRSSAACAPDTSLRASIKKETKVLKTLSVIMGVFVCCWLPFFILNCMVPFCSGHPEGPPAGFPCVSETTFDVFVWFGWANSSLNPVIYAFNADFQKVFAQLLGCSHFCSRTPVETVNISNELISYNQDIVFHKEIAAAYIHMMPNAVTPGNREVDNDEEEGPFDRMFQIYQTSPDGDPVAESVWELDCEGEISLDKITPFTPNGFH
Sequence of Dopaminergic D1 (P21728 whole entry): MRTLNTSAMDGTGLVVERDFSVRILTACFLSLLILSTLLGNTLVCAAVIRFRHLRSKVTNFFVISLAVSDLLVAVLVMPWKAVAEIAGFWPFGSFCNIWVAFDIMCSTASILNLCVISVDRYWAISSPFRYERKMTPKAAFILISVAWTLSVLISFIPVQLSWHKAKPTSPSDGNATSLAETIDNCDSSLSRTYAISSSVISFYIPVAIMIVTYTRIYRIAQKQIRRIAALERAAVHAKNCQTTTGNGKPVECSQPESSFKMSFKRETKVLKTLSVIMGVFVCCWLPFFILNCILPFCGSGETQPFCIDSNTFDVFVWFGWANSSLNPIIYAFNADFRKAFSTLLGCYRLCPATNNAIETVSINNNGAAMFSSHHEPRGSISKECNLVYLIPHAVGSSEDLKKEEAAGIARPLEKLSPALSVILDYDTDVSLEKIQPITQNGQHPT

As usually defined, the inhibition is the relative decrease from the control value, in per cent. As a reminder, the % inhibition is how much of the control response was suppressed. Low readings indicate a weak effect, high ones a strong effect. As to `CO[C@H]1CC[C@@]2(C)C(=CC[C@H]3[C@@H]4CC[C@H](C(C)=O)[C@@]4(C)CC[C@@H]32)C1` (stereo in doubt) [MAP4343, 3β-methoxy-pregna-5-ene-20-one], the inhibition at 10 µM was 12% on Serotoninergic 5-HT6; 1% on Serotoninergic 5-HT2A; 19% on Oppioid K; 3% in experiment [1]; 3% in experiment [2]; 6% on Dopaminergic D4.4. Further, the inhibition at 10 µM in experiment [3] is less than 25%; on Histaminergic H1, 9%; at Dopaminergic D1 it was 2%; on Dopaminergic D3 it was 8%; at Serotoninergic 5-HT1B it was 4%; at Serotoninergic 5-HT3, 10%. The inhibition at 10 µM in [4] was 20%; on Dopaminergic D5 it was -7%; at Cannabinoid CB1, 12%. Also, the “% inhibition” value in experiment [3] was 25%. Further, in the experiment on Wistar Kyoto (WKY) rats [5] (Fig. 5B), the “number of entries in the central square of OFA, change as compared to WKY receiving only vehicle” value was “+289%”. Also, the “time spent in the center of open-field, change as compared to WKY receiving vehicle” value with Wistar Kyoto (WKY) rats [5] (Fig. 5C) was “did not modify”. Moreover, the “locomotor activity (total distance travelled in the open-field arena), change as compared to WKY receiving vehicle” value in the experiment on Wistar Kyoto (WKY) rats [6] was “did not modify significantly”.
